Read-outs that look alike come from different tables or passages of the source.
Experiments:
[1] = Stability in simulated intestinal fluid (SIF, pH 6.8); type: in vitro ADME; conditions: 100 μg/mL, SIF pH 6.8, 37 °C, 0–180 min
Method: (§1) The stability of quercetin and t-res was tested at 100 μg/mL in simulated gastric (SGF, pH 1.2) and intestinal (SIF, pH 6.8) fluids (n = 3). The manufacturer’s protocol was followed to prepare biorelevant media with enzymes. Quercetin and t-res were exposed to SGF and SIF buffers with and without enzymes and incubated in a shaking water bath at 37 °C. 100 μL samples were collected at specific intervals (0–60 min for SGF and 0–180 min for SIF). At a concentration of 100 µg/mL samples were extracted using ACN containing I.S (1:2, v/v), vortexed for 5 min, and then centrifuged at 10,000 rpm for 5 min [52]. The supernatant of the samples was utilized for LC-MS/MS analysis. The % remaining of quercetin and t-res was calculated to determine the stability using Equation (1). (1) % Drug remaining=Concentration of drug at time t/Concentration of drug at time 0×100

[2] = Stability in rat serum under storage conditions (autosampler, benchtop, long-term, freeze-thaw); type: in vitro ADME; conditions: for Autosampler stability, accuracy / Autosampler stability, measured conc. / Benchtop stability, accuracy / Benchtop stability, measured conc. / Freeze-thaw stability, accuracy / Freeze-thaw stability, measured conc. / Long-term stability, accuracy / Long-term stability, measured conc.: rat serum, n = 6; for Autosampler stability, accuracy / Autosampler stability, measured conc.: 4 ± 2 °C, 24 h; for Benchtop stability, accuracy / Benchtop stability, measured conc.: 24 ± 4 °C, 8 h; for Freeze-thaw stability, accuracy / Freeze-thaw stability, measured conc. / Long-term stability, accuracy / Long-term stability, measured conc.: −70 ± 10 °C; for Freeze-thaw stability, accuracy / Freeze-thaw stability, measured conc.: 3 cycles; for Long-term stability, accuracy / Long-term stability, measured conc.: 30 days
Method: Stability studies were performed using three different QC levels including LQC, MQC, and HQC with six replicates. The extracted serum samples were analyzed using different storage conditions including autosampler (4 ± 2 °C for 24 h), bench top stability (24 ± 4 °C for 8 h), and long-term stability (−70 ± 10 °C for 30 days). Freeze-thaw stability was evaluated after subjecting the samples to three cycles of freezing (−70 ± 10 °C for 12 h) and thawing. Stability samples were quantified against fresh calibration and QC samples. The accuracy and precision of stability samples should meet the acceptance criterion of ±15%.

[3] = Plasma stability; type: in vitro ADME; conditions: rat, 37 °C
Method: The preincubation of rat plasma was done for 5 min at 37 °C. After pre-incubation, quercetin and t-res were added to plasma at a concentration of 100 µg/mL, and reaction tubes were incubated for 3 h in a shaking water bath at 37 °C. Aliquots were collected at predetermined timepoints of 0, 5, 15, 30, 45, 60, 90, 120, and 180 min. Plasma samples were processed immediately using the extraction method mentioned in Section 4.6. The % remaining of the drug at various time intervals relative to the initial time point (time 0) was used to calculate the plasma stability.

[4] = In-vivo pharmacokinetic study in rats after oral administration of EECQ extract; conditions: serum, oral 400 mg/Kg EECQ, mean ± SD, n = 6; for AUC(0-inf): male, SD, po; for AUC(0-inf) / AUC(0-t) / Cmax / Tmax / half-life: rat
Method: Liquid-liquid extraction was employed for processing samples of quercetin and t-res in rat serum. CS/QC samples were prepared using 10 μL of sample and 90 μL of control serum or 100 μL serum (in vivo) samples were treated with 100 μL of 1 mg/mL β-glucuronidase enzyme in 100 mM ammonium acetate buffer (pH 5) and incubated for 2 h at 37 °C. The reaction mixtures were precipitated with 200 μL of 0.1% FA in methanol-containing IS (FFA). Samples were vortexed for 5 min at 2000 rpm, and then ethyl acetate was added, the sample was vortexed and centrifuged at 10,000 rpm for 10 min. The organic layer was then collected and dried at 37 °C using a TurboVap and nitrogen stream. The dried residues were reconstituted with mobile phase and injected into LC-MS/MS for analysis.
The pharmacokinetic study of quercetin and t-res was performed by an oral administration of EECQ extract (400 mg/kg) in male SD rats (n = 6). The EECQ oral dose was selected based on our previous publication. […] Blood samples were collected from the retro-orbital plexus of rats at predetermined time points 0.25, 0.5, 1, 2, 4, 8, 12, 24, and 48 h after oral administration. Serum was obtained by centrifuging the blood and samples were stored at −80 °C until analysis. Serum samples were processed using the LLE extraction mentioned in Section 4.6 and analyzed using the validated LC-MS/MS method. The non-compartment model was used to calculate the pharmacokinetic (PK) parameters for quercetin and t-res using WinNonlin 6.3 software (Pharsight Corporation, Saint Louis, MO, USA). The PK parameters were estimated, including Cmax, maximum plasma concentration; t1/2, half-life; Tmax, time to reach Cmax; CL/F, clearance and Vd/F, apparent volume of distribution. AUC0–t (area under the concentration curve from zero time point to the last time point) was determined with the trapezoidal rule up to the last measured plasma concentration, Clast. AUC0–∞ (AUC curve from zero time point to infinity) was determined by adding AUC0–t and Clast/Ke.

[5] = Stability in simulated gastric fluid (SGF, pH 1.2); type: in vitro ADME; conditions: 100 μg/mL, SGF pH 1.2, 37 °C, 0–60 min
Method: as §1

[6] = set-up: method as in Dinesh Kumar V et al. (2014) [48]; conditions: rat plasma, oral, 25 mg/kg, ref Dinesh Kumar V et al. (2014) [48], cited from earlier work
[7] = Metabolic stability in rat liver microsomes (RLM); conditions: RLM 0.5 mg/mL, 100 µg/mL, 1 mM NADPH, up to 60 min
[8] = set-up: method as in Meng-xiang Su et al. (2011) [47]; conditions: rat plasma, oral, 0.6 mg/kg; ref Meng-xiang Su et al. (2011) [47]; cited from earlier work
[9] = rat, microsomes, 1 h
[10] = nominal conc. 203 ng/mL (204 for trans-resveratrol)

SMILES	Autosampler stability, accuracy ([2]; nominal conc. 30 ng/mL)	Autosampler stability, measured conc. ([2]; nominal conc. 30 ng/mL)	Autosampler stability, accuracy [2, 10]	Autosampler stability, measured conc. [2, 10]	Autosampler stability, accuracy ([2]; nominal conc. 375 ng/mL)	Autosampler stability, measured conc. ([2]; nominal conc. 375 ng/mL)	Benchtop stability, accuracy ([2]; nominal conc. 30 ng/mL)	Benchtop stability, measured conc. ([2]; nominal conc. 30 ng/mL)	Benchtop stability, accuracy [2, 10]	Benchtop stability, measured conc. [2, 10]	Benchtop stability, accuracy ([2]; nominal conc. 375 ng/mL)	Benchtop stability, measured conc. ([2]; nominal conc. 375 ng/mL)	Freeze-thaw stability, accuracy ([2]; nominal conc. 30 ng/mL)	Freeze-thaw stability, accuracy [2, 10]	Freeze-thaw stability, measured conc. [2, 10]	Freeze-thaw stability, accuracy ([2]; nominal conc. 375 ng/mL)	Freeze-thaw stability, measured conc. ([2]; nominal conc. 375 ng/mL)	Long-term stability, accuracy ([2]; nominal conc. 30 ng/mL)	Long-term stability, measured conc. ([2]; nominal conc. 30 ng/mL)	Long-term stability, accuracy [2, 10]	also measured
O=c1c(O)c(-c2ccc(O)c(O)c2)oc2cc(O)cc(O)c12 [Quercetin]	92.56%	27.77 ± 1.50 ng/mL	89.32%	181.31 ± 8.65 ng/mL	99.44%	372.92 ± 2.21 ng/mL	90.29%	27.09 ± 1.67 ng/mL	90.96%	184.64 ± 7.16 ng/mL	98.96%	371.12 ± 2.43 ng/mL	98.12%	93.68%	190.17 ± 8.97 ng/mL	98.63%	369.86 ± 4.43 ng/mL	100.22%	30.07 ± 2.06 ng/mL	98.38%	Stability in SIF [1]: stable; Stability in rat serum at variable storage conditions ([2]; autosampler, benchtop, freeze-thaw, long-term): stable; Freeze-thaw stability, measured conc. ([2]; nominal conc. 30 ng/mL): 29.44 ± 2.73 ng/mL; Long-term stability, measured conc. [2, 10]: 199.71 ± 8.70 ng/mL; Long-term stability, accuracy ([2]; nominal conc. 375 ng/mL): 99.48%; Long-term stability, measured conc. ([2]; nominal conc. 375 ng/mL): 373.05 ± 10.65 ng/mL; remaining at 3 h, 100 µg/mL [3]: 83.4%; AUC(0-inf) ([4]; 400 mg/kg): 471 ± 51.5 ng·h/mL; AUC0–∞ ([4]; male SD rats, 400 mg/kg): 474.23 ± 51.49 ng·h/mL; AUC(0-t) ([4]; male SD rats): 447 ± 47 ng·h/mL; Cmax ([4]; male SD rats): 57.6 ± 14.3 ng/mL; Tmax ([4]; male SD rats): 1.17 ± 0.41 h; half-life ([4]; male SD rats): 4.91 ± 0.69 h; Stability in SGF [5]: Moderate instability; AUC(0–t) [6]: 3283.75 ng·h/mL; Tmax [6]: 4.00; plasma half-life [6]: 4.96 h; Cmax ([6]; in ng/mL): 369.20; % remaining in RLM [7]: 53.78
Oc1ccc(/C=C/c2cc(O)cc(O)c2)cc1 [trans-Resveratrol, trans-resveratrol]	94.53%	28.36 ± 2.19 ng/mL	93.73%	190.28 ± 13.20 ng/mL	99.51%	373.15 ± 5.84 ng/mL	95.08%	28.52 ± 3.05 ng/mL	93.36%	189.53 ± 8.81 ng/mL	98.17%	368.13 ± 12.29 ng/mL	91.32%	93.32%	189.43 ± 17.82 ng/mL	98.11%	367.92 ± 11.94 ng/mL	101.68%	30.50 ± 2.53 ng/mL	93.14%	Long-term stability, measured conc. [2, 10]: 189.08 ± 14.18 ng/mL; Long-term stability, accuracy ([2]; nominal conc. 375 ng/mL): 97.67%; Long-term stability, measured conc. ([2]; nominal conc. 375 ng/mL): 366.25 ± 11.38 ng/mL; AUC(0–t) [8]: 2835 ± 1655 ng·min/mL; Cmax [8]: 23 ± 8 ng/mL; half-life [8]: 0.6 ± 0.1 h; Phase I metabolism in RLM [9]: no phase I metabolism was observed; Phase I metabolism in RLM ([9]; 100 µg/mL, pH 7.4): no phase-1 metabolism observed; remaining at 3 h, 100 µg/mL [3]: 84.4%; AUC(0-inf) ([4]; 400 mg/kg): 157 ± 21.1 ng·h/mL; AUC(0-t) ([4]; male SD rats): 145 ± 20.8 ng·h/mL; Cmax ([4]; male SD rats): 56.4 ± 13.1 ng/mL; Tmax ([4]; male SD rats): 0.58 ± 0.2 h; half-life ([4]; male SD rats): 1.51 ± 0.4 h

— publication PMC10301570 (Molecules, 2023)
